From patent US4220644A, “7-Acylamino-3-(substituted tetrazolyl thiomethyl) cephalosporins” (SmithKline Corporation, priority 1976, dated 1980) come the findings set out here.

≈ marks a conversion by molar mass, not a printed value. Like-named read-outs stand apart in the source and are kept apart here.

Assay [1] concerns S. aureus SK 23390. Description: MIC in vitro (Table 1), S. aureus SK 23390. It counts as cell-based. An excerpt: (§1) Compound names corresponding to numbers are given in the experimental section. For comparative purposes, data for cephamandole, which is 7-mandelamido-3-(1-methyltetrazol-5-ylthiomethyl)-3-cephem-4-carboxylic acid, is also given in Tables 1 and 2.
Assay [2] has as its system Salmonella ATCC 12176. Description: MIC in vitro (Table 1), Salmonella ATCC 12176. In kind it is cell-based. The source says:
(§2) The compounds of Formula I have antibacterial activity against both Gram-positive and Gram-negative organisms. […] Compound names corresponding to numbers are given in the experimental section. For comparative purposes, data for cephamandole, which is 7-mandelamido-3-(1-methyltetrazol-5-ylthiomethyl)-3-cephem-4-carboxylic acid, is also given in Tables 1 and 2.

Assay [3] concerns Kleb. pneumo. SK 1200. The experiment in a line: MIC in vitro (Table 1), Kleb. pneumo. SK 1200. It counts as cell-based.
From the text: as §1

The subject of assay [4] is Entero. aerog. ATCC 13048. The experiment in a line: MIC in vitro (Table 1), Entero. aerog. ATCC 13048. In kind it is cell-based.
From the text: as §1

Assay [5] has as its system E. coli HH 33779. The experiment in a line: MIC in vitro (Table 1), E. coli HH 33779. It counts as cell-based.
From the text: as §1

Assay [6] has as its system Serra. Marc. ATCC 13880. The experiment in a line: MIC in vitro (Table 1), Serra. Marc. ATCC 13880. It counts as cell-based. The settings on record: in vitro, Serra. Marc. ATCC 13880.
From the text: as §1

Assay [7] concerns E. coli SK 12140. The experiment in a line: MIC in vitro (Table 1), E. coli SK 12140. It counts as cell-based.
From the text: as §1

In assay [8] the test system is Strep. Faecalis HH 34358. The experiment in a line: MIC in vitro (Table 1), Strep. Faecalis HH 34358. In kind it is cell-based. The settings on record: in vitro, Strep. Faecalis HH 34358.
From the text: as §1

Assay [9] has as its system Proteus morgani 179. The experiment in a line: MIC in vitro (Table 1), Proteus morgani 179. It counts as cell-based.
From the text: as §1

The test system of assay [10] is Kleb. pneumo. 4200. Description: In vivo mouse protection (Table 2), Kleb. pneumo. 4200.
From the text: as §1

The subject of assay [11] is S. aureus HH 127. Description: MIC in vitro (Table 1), S. aureus HH 127. In kind it is cell-based. The settings on record: S. aureus HH 127.
From the text: as §1

Assay [12] concerns Entero. cloacae HH 31254. Description: MIC in vitro (Table 1), Entero. cloacae HH 31254. In kind it is cell-based.
From the text: as §1

Assay [13] concerns Kleb. pneumo. SK 4200. The experiment in a line: MIC in vitro (Table 1), Kleb. pneumo. SK 4200. In kind it is cell-based.
From the text: as §1

Assay [14] deals with Shigella HH 117. Description: MIC in vitro (Table 1), Shigella HH 117. It counts as cell-based.
From the text: as §2

For assay [15], the system named is Pseudo. sp. HH 63. Description: MIC in vitro (Table 1), Pseudo. sp. HH 63. In kind it is cell-based. The settings on record: in vitro, Pseudo. sp. HH 63; read-out: MIC.
From the text: as §2

For assay [16], the system named is E. coli 12140. Description: In vivo mouse protection (Table 2), E. coli 12140.
From the text: as §1

For assay [17], the system named is S. villaluz. The experiment in a line: MIC in vitro (Table 1), S. villaluz. It counts as cell-based.
From the text: as §2

Where [18] appears, read: Staphylococcus aureus, SK23390, in vitro, S. aureus SK 23390, read-out: MIC.
Where [19] appears, read: Salmonella, ATCC12176, in vitro, read-out: MIC.
[20] abbreviates: in vitro, Entero. aerog. ATCC 13048, read-out: MIC.
The mark [21] stands for this setting: Escherichia coli, HH33779, in vitro, E. coli HH 33779, read-out: MIC.
[22] abbreviates: Escherichia coli, SK12140, in vitro, read-out: MIC.
The mark [23] stands for this setting: Enterococcus faecalis, read-out: MIC.
Setting [24] is: Staphylococcus aureus, HH127, in vitro, read-out: MIC.
The mark [25] stands for this setting: Shigella, HH117, in vitro, read-out: MIC.
Where [26] appears, read: Escherichia coli, 12140, sc, E. coli 12140, s.c.

The term MIC denotes the smallest concentration in the dilution series that meets the test's criterion for growth inhibition. As usually defined, the ED50 is the midpoint of the dose-response relation. Lower therefore signals greater potency. In the case of `NC(=O)Cn1nnnc1SCC1=C(C(=O)O)N2C(=O)C(NC(=O)[C@H](N)c3ccc(O)cc3)[C@H]2SC1` (stereo partly drawn) [VI, 7-(D-α-Amino-4-hydroxyphenylacetamido) -3-(1-carbamoylmethyltetrazol-5-ylthiomethyl) -3-cephem-4-carboxylic acid], the MIC in assay [1] (setting [18]) worked out at 6.3 µg/mL (≈ 12.1 µM); in assay [2] (setting [19]), 1.6 µg/mL (≈ 3.07 µM); in [3] (read-out: MIC), 6.3 µg/mL (≈ 12.1 µM); in assay [4] (setting [20]), 6.3 µg/mL (≈ 12.1 µM); in assay [5] (setting [21]), 6.3 µg/mL (≈ 12.1 µM); in assay [6] (read-out: MIC), 100 µg/mL (≈ 192 µM). Also, the minimal inhibitory concentration (MIC) in assay [7] (setting [22]) came to 6.3 µg/mL (≈ 12.1 µM); in [8] (setting [23]) it was 50 µg/mL (≈ 96.1 µM); in assay [9] (read-out: MIC), 50 µg/mL (≈ 96.1 µM); in assay [11] (setting [24]), 6.3 µg/mL (≈ 12.1 µM); in assay [12] (Enterobacter cloacae, HH31254), 3.1 µg/mL (≈ 5.96 µM); in assay [13] (in vitro, Kleb. pneumo. SK 4200, read-out: MIC) it was 12.5 µg/mL (≈ 24 µM). In addition, the minimum inhibitory concentration (MIC) was 3.1 µg/mL (≈ 5.96 µM) in assay [14] (setting [25]) and above 200 µg/mL in assay [15]. The median effective dose (ED50) in assay [10] (po, Kleb. pneumo. 4200, p.o.) turned out to be 4 mg/kg; in assay [10] (sc, Kleb. pneumo. 4200, s.c.) it was 0.92 mg/kg.

For the compound `CNC(=O)Cn1nnnc1SCC1=C(C(=O)O)N2C(=O)C(NC(=O)[C@H](O)c3ccccc3)[C@H]2SC1` (stereo partly drawn) [III, 7-D-Mandelamido-3-(1-N-methylcarbamoylmethyltetrazol-5-ylthiomethyl)-3-cephem-4-carboxylic acid], the MIC in [1] (Staphylococcus aureus, SK23390) was 3.1 µg/mL (≈ 5.97 µM); in [2] (setting [19]) it was 0.8 µg/mL (≈ 1.54 µM); in [3] it was 3.1 µg/mL (≈ 5.97 µM); in assay [4], 3.1 µg/mL (≈ 5.97 µM); in assay [5] (Escherichia coli, HH33779) it was 3.1 µg/mL (≈ 5.97 µM); in [6] (read-out: MIC), 25 µg/mL (≈ 48.1 µM). Also, the minimal inhibitory concentration (MIC) is 3.1 µg/mL (≈ 5.97 µM) in assay [7] (Escherichia coli, SK12140, in vitro); 25 µg/mL (≈ 48.1 µM) in [8] (setting [23]); 3.1 µg/mL (≈ 5.97 µM) in [9]; 1.6 µg/mL (≈ 3.08 µM) in [11] (setting [24]); 3.1 µg/mL (≈ 5.97 µM) in [12] (Enterobacter cloacae, HH31254); 3.1 µg/mL (≈ 5.97 µM) in assay [13]. Also, the minimal inhibitory concentration (MIC) in [14] (setting [25]) was 3.1 µg/mL (≈ 5.97 µM); in [15] it was above 200 µg/mL. For the same compound, the ED50 in assay [16] (Escherichia coli, 12140, po, E. coli 12140, p.o.) is 34 mg/kg; in assay [16] (setting [26]) it was 1.56 mg/kg; in assay [10] (po, Kleb. pneumo. 4200, p.o.), above 50 mg/kg; in [10] (sc, Kleb. pneumo. 4200, s.c.), 2.8 mg/kg.

As for `O=C(O)Cn1nnnc1SCC1=C(C(=O)O)N2C(=O)C(NC(=O)CSC(F)(F)F)[C@H]2SC1` (stereo partly shown) [XVIII, 7-Trifluoromethylmercaptoacetamido-3-(1-carboxymethyltetrazol-5-ylthiomethyl)-3-cephem-4-carboxylic acid], the minimum inhibitory concentration (MIC) in [1] (setting [18]) is 3 µg/mL (≈ 5.83 µM); in assay [2] (setting [19]) it was 0.8 µg/mL (≈ 1.55 µM); in [3], 0.4 µg/mL (≈ 0.777 µM); in [4] (setting [20]), 13 µg/mL (≈ 25.3 µM); in assay [5] (setting [21]), 6 µg/mL (≈ 11.7 µM); in assay [6] (read-out: MIC) it was above 200 µg/mL. For the same compound, the minimal inhibitory concentration (MIC) in assay [7] (setting [22]) came out at 0.8 µg/mL (≈ 1.55 µM); in assay [8] (setting [23]) it was 100 µg/mL (≈ 194 µM); in [9] (read-out: MIC), 200 µg/mL (≈ 389 µM); in [17] (read-out: MIC) it was 100 µg/mL (≈ 194 µM); in [11] (setting [24]) it was 3 µg/mL (≈ 5.83 µM); in assay [12] (Enterobacter cloacae, HH31254, in vitro, Entero. cloacae HH 31254, read-out: MIC) it was 3 µg/mL (≈ 5.83 µM). The MIC in assay [13] stood at 0.4 µg/mL (≈ 0.777 µM); in [14] (setting [25]), 3 µg/mL (≈ 5.83 µM). Besides, the ED50 in assay [16] (setting [26]) came out at 3.1 mg/kg; in assay [10] (sc, Kleb. pneumo. 4200, s.c.), 0.4 mg/kg.

On to “7-(α-Carboxythienylacetamido)-3-(1-carboxymethyltetrazol-5-ylthiomethyl)-3-cephem-4-carboxylic acid [XIX]”, for which the minimum inhibitory concentration (MIC) in assay [1] (in vitro, S. aureus SK 23390) is 50 µg/mL; in [2] (in vitro), 25 µg/mL; in assay [3], 6 µg/mL; in [4] (in vitro, Entero. aerog. ATCC 13048), 50 µg/mL; in [5] (in vitro, E. coli HH 33779), 50 µg/mL; in [6] it was 50 µg/mL. The minimal inhibitory concentration (MIC) was 25 µg/mL in [7] (in vitro); 200 µg/mL in assay [8]; 6 µg/mL in assay [9]; 100 µg/mL in assay [17]; 50 µg/mL in [11] (in vitro); 50 µg/mL in assay [12] (in vitro, Entero. cloacae HH 31254). Further, the MIC was found to be 50 µg/mL in [13] (in vitro, Kleb. pneumo. SK 4200) and 6 µg/mL in [14] (in vitro).
